Laboratory results published in US10010076B2, “Plant control composition containing peptide enhancing agent” (Arch Chemicals, Inc., priority 2013, dated 2018).

Columns and labels:
Eurasian watermilfoil = Eurasian watermilfoil aquaria trial, biomass 4 weeks after treatment; details: 8 hr exposure
[1] = system: cyanophyta (blue-green algae); assay: Toxicity experiment on algae in Morrison Lake site water (chlorophyll-a, visual observations, total algae cell density); format: cell-based
Protocol: (§1) Five formulations were prepared and tested. The formulations included various pesticides used singularly, a protein surfactant blend used singularly, and pesticides used in combination with a protein surfactant blend. The tests were conducted on cyanophyta (blue-green algae) sampled from Morrison Lake located in Ionia County, Mich. The properties that were tested included the chlorophyll-a concentrations, cell densities, visual observations, and partial application label rates of chelated elemental copper and sodium carbonate peroxyhydrate. The initial chlorophyll-a concentration was determined to be 27.4 μg chlorophyll a/L. The initial water characteristics are listed in table 1. […]
(§2) The formulation tested was sodium carbonate peroxyhydrate and the exposure period was 10 days.
(§3) The algae were exposed to three concentrations in 500 mL flasks. The experiments were initiated using 300 mL of site water. The toxicity experiment was initiated by exposing the algae to 7.4, 22.1, and 36.9 mg sodium carbonate peroxyhydrate/L. Three replicates of each exposure concentration, along with three replicates of untreated controls, were tested. […]

Anabaena sp. = assay: Toxicity experiment on algae in Morrison Lake site water, cell density of Anabaena sp.; format: cell-based
Protocol: as §1, §2, §3

Aphanizomenon sp. = assay: Toxicity experiment on algae in Morrison Lake site water, cell density of Aphanizomenon sp.; format: cell-based
Protocol: as §1, §2, §3

SMILES | regrowth of Eurasian watermilfoil (Eurasian watermilfoil; 0.1 mg ai/L, 2 WAT) | injury to Eurasian watermilfoil (Eurasian watermilfoil; 0.1 mg ai/L, initial) | reducing Eurasian watermilfoil biomass (Eurasian watermilfoil; 0.2 mg ai/L, 4 WAT) | Avg. Day 4 Chlorophyll-a ([1]; 7.4 mg/L (20 lbs/acre-ft)) [µg/L] | Avg. Day 10 Chlorophyll-a ([1]; 7.4 mg/L (20 lbs/acre-ft)) [µg/L] | Avg. Day 4 Chlorophyll-a ([1]; 22.1 mg/L (60 lbs/acre-ft)) [µg/L] | Avg. Day 10 Cell Density, Total algae ([1]; 22.1 mg/L (60 lbs/acre-ft)) | Avg. Day 10 Chlorophyll-a ([1]; 22.1 mg/L (60 lbs/acre-ft)) [µg/L] | Avg. Day 4 Cell Density, Total algae ([1]; 36.9 mg/L (100 lbs/acre-ft)) | Avg. Day 4 Chlorophyll-a ([1]; 36.9 mg/L (100 lbs/acre-ft)) [µg/L] | Avg. Day 10 Cell Density, Total algae ([1]; 36.9 mg/L (100 lbs/acre-ft)) | Avg. Day 10 Chlorophyll-a ([1]; 36.9 mg/L (100 lbs/acre-ft)) [µg/L] | concentration of sodium carbonate peroxyhydrate needed for algae control ([1]; sodium carbonate peroxyhydrate applied alone) [ppm] | Avg. Day 4 Cell Density, Anabaena sp. (Anabaena sp.; 7.4 mg/L (20 lbs/acre-ft)) | Avg. Day 10 Cell Density, Anabaena sp. (Anabaena sp.; 7.4 mg/L (20 lbs/acre-ft)) | Avg. Day 4 Cell Density, Anabaena sp. (Anabaena sp.; 22.1 mg/L (60 lbs/acre-ft)) | Avg. Day 4 Cell Density, Aphanizomenon sp. (Aphanizomenon sp.; 7.4 mg/L (20 lbs/acre-ft)) | Avg. Day 10 Cell Density, Aphanizomenon sp. (Aphanizomenon sp.; 7.4 mg/L (20 lbs/acre-ft)) | Avg. Day 4 Cell Density, Aphanizomenon sp. (Aphanizomenon sp.; 22.1 mg/L (60 lbs/acre-ft))
CCOC(=O)C(Cl)Cc1cc(-n2nc(C)n(C(F)F)c2=O)c(F)cc1Cl (stereo not shown) [Carfentrazone-ethyl, Ethyl 2-chloro-3-[2-chloro-4-fluoro-5-[4-(difluoromethyl)-4,5-dihydro-3-methyl-5-oxo-1H-1,2,4-trizol-1-yl)phenyl]propanoate] | regrowth was noted | initial injury observed | effective at reducing Eurasian watermilfoil biomass |  |  |  |  |  |  |  |  |  |  |  |  |  |  |  | 
O=C([O-])[O-].O=C([O-])[O-].OO.OO.OO.[Na+].[Na+].[Na+].[Na+] [Sodium Carbonate Peroxyhydrate, sodium carbonate peroxyhydrate] |  |  |  | 22.5 | 8.6 | 12.5 | <1 × 10^3 cells of/mL | 2.7 | <1 × 10^3 cells/mL | 7.9 | <1 × 10^3 cells of/mL | <2 | 22.7 | 8.9 × 10^4 cells/mL | 4.1 × 10^4 cells of/mL | 1.8 × 10^4 cells/mL | 1.1 × 10^3 cells/mL | 2.8 × 10^4 cells of/mL | 6.5 × 10^4 cells/mL
